Active and inactive are the calls of the source.
Experiments:
[1] = system: HEK293; assay: inhibitors of LMP1-driven NF-kB reporter, dose response, cell-based, HEK293, luciferase, cherry-pick (AID 588343); assay type: functional; conditions: Homo sapiens
[2] = cells; assay type: functional, cell-based
[3] = target: Luciferin 4-monooxygenase (Photinus pyralis, UniProt P08659); assay: firefly luciferase enzyme inhibitors, dose response, biochemical, luminescence (AID 1891)
[4] = Luminescence Cell-Based Dose Confirmation HTS to Identify Inhibitors of Platelet Dense Granule Release. [Related pubchem assays: 1663 (Primary HTS), 1678 (Summary of Project)]; assay type: functional
[5] = HepG2 cell cytotoxicity, dose response, cytotoxicity control, ATP luminescence, cherry-pick, activator set 2 (AID 1053143); assay type: functional, cell-based
[6] = target: T1, Nuclear receptor subfamily 0 group B member 1 (Homo sapiens, UniProt P51843); assay type: functional, cell-based;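 further: HEK293T cells transfected with SF-1 and DAX-1 plus StAR promoter luciferase reporter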
T1 sequence (P51843 whole entry): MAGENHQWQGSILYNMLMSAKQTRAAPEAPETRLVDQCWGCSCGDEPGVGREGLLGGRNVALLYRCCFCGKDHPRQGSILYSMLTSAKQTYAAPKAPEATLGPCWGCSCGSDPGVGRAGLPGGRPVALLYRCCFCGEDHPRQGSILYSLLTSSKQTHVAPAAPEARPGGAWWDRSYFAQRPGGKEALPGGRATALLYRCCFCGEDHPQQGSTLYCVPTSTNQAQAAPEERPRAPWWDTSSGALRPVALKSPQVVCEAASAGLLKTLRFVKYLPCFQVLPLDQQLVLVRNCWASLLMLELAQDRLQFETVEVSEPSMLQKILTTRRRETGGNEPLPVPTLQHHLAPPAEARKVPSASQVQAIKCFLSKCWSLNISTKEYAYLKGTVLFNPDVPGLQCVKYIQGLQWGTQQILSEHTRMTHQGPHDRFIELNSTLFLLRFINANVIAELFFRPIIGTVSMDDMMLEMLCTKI

[7] = target: T2, Oxysterols receptor LXR-beta (Homo sapiens, UniProt P55055); assay type: functional, cell-based;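 further: Cell-based luminescence dose-response assay of agonist activity at LXR, run as a confirmatory counterscreen to a daf-12 agonist screen; HEK293 cells with Gal4-LXR fusion and GAL4-driven luciferase reporter; agonist potency from rising luciferase signal of a Gal4-LXR reporter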
T2 sequence (P55055 whole entry): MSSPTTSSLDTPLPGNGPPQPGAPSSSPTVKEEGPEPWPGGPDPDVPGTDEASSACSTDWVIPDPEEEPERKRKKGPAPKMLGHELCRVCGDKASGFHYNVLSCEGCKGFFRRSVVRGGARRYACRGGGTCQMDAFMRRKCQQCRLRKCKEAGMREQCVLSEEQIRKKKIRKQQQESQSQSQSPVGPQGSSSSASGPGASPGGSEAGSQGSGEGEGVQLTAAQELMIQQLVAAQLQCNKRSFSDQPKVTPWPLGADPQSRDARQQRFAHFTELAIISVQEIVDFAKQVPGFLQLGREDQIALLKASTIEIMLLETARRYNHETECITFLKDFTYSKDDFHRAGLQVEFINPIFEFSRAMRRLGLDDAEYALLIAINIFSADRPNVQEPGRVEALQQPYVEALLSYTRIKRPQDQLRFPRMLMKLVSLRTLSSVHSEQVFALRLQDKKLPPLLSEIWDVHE

[8] = cells
[9] = target: T3, RNA-binding protein pos-1 (Caenorhabditis elegans, UniProt G5EF15); assay: inhibitors of POS-1/mex-3 RNA binding, dose response, biochemical, fluorescence polarization (AID 1964);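 further: purified POS-1 fused to maltose binding protein made in E. coli; potency of compounds blocking POS-1 binding to fluorescent RNA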
T3 sequence (G5EF15 whole entry): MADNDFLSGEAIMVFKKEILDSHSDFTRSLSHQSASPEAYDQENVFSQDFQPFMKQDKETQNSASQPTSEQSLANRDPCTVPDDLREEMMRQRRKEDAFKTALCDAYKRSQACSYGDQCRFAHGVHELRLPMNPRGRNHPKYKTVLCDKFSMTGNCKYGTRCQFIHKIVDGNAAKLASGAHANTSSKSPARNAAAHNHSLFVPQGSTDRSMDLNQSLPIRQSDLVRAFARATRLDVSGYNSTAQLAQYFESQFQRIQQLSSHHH

[10] = target: 1-phosphatidylinositol 4,5-bisphosphate phosphodiesterase beta-3 (Homo sapiens, UniProt Q01970); assay: Fluorescence-based biochemical high throughput dose response assay to identify inhibitors of phospholipase C isozymes (PLC-B3).
1-phosphatidylinositol 4,5-bisphosphate phosphodiesterase beta-3, sequence (Q01970 whole entry): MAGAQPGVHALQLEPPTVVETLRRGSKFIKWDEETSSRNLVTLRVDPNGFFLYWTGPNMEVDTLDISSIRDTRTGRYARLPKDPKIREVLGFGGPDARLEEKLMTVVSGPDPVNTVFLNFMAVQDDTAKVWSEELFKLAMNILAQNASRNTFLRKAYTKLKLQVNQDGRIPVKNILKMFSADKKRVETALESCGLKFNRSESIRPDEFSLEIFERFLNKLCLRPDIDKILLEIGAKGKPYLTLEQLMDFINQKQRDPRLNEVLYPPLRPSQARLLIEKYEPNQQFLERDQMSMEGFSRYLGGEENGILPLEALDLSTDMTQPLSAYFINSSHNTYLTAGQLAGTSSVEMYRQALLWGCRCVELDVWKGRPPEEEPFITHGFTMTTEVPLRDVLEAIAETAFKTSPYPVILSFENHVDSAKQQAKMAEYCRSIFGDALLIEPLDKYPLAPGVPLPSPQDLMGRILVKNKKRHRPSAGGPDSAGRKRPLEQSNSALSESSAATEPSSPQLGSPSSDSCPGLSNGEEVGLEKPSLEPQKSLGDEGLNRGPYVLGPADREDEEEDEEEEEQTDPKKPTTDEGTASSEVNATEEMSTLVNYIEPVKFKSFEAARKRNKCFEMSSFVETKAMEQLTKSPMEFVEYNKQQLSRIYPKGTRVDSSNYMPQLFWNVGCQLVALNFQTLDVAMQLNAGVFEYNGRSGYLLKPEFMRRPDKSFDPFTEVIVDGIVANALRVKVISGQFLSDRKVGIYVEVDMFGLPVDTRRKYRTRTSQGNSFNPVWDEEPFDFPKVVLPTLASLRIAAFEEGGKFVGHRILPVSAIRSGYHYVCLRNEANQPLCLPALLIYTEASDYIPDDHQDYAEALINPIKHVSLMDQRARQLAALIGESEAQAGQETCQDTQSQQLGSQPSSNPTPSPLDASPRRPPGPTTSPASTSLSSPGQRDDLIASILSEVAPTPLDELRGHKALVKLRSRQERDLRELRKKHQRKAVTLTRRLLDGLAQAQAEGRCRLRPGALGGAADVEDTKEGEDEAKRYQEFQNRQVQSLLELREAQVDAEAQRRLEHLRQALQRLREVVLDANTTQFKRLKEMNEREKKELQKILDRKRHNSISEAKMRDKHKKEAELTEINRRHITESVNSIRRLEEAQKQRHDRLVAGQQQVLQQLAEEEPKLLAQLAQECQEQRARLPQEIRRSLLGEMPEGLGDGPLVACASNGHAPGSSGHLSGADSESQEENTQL

[11] = target: T4, Zinc finger protein mex-5 (Caenorhabditis elegans, UniProt Q9XUB2); assay: MEX-5/TCR-2 RNA interaction inhibitors, dose response, biochemical, C. elegans, fluorescence polarization (AID 1960)
T4 sequence (Q9XUB2 whole entry): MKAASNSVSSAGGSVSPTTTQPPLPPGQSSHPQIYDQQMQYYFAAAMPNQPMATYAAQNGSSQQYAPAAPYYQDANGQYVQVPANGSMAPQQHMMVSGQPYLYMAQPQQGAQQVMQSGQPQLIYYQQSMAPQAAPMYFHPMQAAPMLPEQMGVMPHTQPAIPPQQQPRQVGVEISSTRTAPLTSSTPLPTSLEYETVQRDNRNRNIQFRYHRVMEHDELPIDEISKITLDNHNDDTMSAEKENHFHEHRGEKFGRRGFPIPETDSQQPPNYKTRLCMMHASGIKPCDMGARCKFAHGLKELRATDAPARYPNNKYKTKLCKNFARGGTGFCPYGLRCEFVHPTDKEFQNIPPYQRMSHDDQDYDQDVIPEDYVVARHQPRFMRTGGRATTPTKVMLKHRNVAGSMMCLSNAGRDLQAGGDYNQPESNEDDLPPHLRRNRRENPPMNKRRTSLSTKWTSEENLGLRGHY

[12] = target: 1-phosphatidylinositol 4,5-bisphosphate phosphodiesterase gamma-1 (Homo sapiens, UniProt P19174); assay: Counterscreen for inhibitors of phospholipase C isozymes (PLC-B3): Fluorescence-based biochemical high throughput dose response assay to identify inhibitors of phospholipase C isozymes (PLC-gamma1).
1-phosphatidylinositol 4,5-bisphosphate phosphodiesterase gamma-1, sequence (P19174 whole entry): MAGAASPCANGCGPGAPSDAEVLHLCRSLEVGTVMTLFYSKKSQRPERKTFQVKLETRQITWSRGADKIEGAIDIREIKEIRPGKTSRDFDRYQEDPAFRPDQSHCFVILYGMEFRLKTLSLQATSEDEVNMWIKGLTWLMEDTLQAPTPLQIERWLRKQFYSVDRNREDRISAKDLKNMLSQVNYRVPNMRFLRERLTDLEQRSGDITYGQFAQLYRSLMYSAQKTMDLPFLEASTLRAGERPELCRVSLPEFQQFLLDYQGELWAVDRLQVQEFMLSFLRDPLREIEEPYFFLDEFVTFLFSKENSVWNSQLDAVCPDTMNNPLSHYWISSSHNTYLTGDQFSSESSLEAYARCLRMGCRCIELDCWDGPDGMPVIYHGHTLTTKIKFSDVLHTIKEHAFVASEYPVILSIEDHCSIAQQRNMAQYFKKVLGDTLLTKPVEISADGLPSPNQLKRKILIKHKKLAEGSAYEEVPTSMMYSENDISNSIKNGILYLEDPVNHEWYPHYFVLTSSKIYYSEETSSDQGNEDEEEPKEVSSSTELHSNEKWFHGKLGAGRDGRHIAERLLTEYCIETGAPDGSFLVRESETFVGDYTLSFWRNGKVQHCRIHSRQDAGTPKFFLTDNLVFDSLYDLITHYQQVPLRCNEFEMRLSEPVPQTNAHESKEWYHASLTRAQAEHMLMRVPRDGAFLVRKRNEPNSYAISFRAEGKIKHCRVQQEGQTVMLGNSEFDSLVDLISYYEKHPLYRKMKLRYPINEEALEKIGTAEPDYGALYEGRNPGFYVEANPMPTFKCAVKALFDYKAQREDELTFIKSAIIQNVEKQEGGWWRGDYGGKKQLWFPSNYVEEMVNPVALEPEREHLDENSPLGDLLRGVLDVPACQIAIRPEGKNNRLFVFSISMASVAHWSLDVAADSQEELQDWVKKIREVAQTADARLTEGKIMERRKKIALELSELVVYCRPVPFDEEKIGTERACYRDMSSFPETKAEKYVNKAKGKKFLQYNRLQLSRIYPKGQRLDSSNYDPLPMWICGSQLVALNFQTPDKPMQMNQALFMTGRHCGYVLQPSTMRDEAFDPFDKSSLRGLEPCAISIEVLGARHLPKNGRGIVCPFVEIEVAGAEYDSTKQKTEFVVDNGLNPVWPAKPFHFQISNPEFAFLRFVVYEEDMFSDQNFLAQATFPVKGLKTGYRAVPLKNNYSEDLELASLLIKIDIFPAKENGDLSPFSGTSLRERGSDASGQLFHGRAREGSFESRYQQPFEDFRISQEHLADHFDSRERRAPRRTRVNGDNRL

[13] = HEK293 cell cytotoxicity, dose response, cytotoxicity control, plate reader, cherry-picked samples (AID 743446); assay type: functional, cell-based
[14] = system: BJ; assay: cells; assay type: functional, cell-based; conditions: Homo sapiens
[15] = target: Endoplasmic reticulum aminopeptidase 1 (Homo sapiens, UniProt Q9NZ08); assay: ERAP1 aminopeptidase inhibitors, dose response, biochemical, cherry-pick, set 2, plate reader (AID 743314)
Endoplasmic reticulum aminopeptidase 1, sequence (Q9NZ08 whole entry): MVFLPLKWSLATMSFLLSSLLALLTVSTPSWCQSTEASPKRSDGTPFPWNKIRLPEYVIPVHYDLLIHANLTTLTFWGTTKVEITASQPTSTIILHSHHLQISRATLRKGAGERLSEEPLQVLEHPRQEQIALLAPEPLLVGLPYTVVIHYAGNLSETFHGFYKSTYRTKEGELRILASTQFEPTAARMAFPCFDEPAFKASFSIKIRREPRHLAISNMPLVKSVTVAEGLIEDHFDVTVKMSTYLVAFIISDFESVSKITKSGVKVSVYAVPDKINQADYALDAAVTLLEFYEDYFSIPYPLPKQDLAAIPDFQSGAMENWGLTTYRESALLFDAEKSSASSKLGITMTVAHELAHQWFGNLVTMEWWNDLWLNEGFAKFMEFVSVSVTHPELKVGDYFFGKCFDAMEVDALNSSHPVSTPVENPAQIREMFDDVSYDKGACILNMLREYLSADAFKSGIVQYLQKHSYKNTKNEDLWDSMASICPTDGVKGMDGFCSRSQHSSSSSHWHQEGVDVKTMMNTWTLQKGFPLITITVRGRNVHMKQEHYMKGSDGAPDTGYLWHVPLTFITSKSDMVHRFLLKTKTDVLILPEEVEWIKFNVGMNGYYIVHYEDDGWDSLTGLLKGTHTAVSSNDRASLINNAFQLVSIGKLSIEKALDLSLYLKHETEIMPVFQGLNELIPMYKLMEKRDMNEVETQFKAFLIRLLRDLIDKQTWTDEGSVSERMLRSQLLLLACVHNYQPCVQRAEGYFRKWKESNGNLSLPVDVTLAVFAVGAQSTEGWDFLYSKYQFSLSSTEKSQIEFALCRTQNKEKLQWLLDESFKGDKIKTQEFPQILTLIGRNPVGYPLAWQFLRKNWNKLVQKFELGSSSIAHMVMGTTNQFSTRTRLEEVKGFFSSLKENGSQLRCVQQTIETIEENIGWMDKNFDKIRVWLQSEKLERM

[16] = A549 cell cytotoxicity, dose response, cytotoxicity control, plate reader, cherry-pick, antagonist series (AID 743412); assay type: functional, cell-based
[17] = system: INS1; assay: beta cell apoptosis inhibitors, cytokine rescue, dose response, luminescence, retest (AID 449756); assay type: functional, cell-based; conditions: Rattus norvegicus;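 further: cell death triggered by IL-1 beta plus TNF-alpha plus IFN-gamma mixture; protective hits raise ATP signal compared with cytokine alone wells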
[18] = MC4R antagonists, dose response, counter-screen for LGR2 antagonist project, cell-based, plate reader, cherry pick (AID 743444); assay type: functional;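 further: transfected HEK 293 cells stimulated with alpha-MSH peptide; potency of inhibitors of the alpha-MSH evoked signal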
[19] = LGR2 antagonists, dose response, cell-based, HEK293, CRE-luciferase reporter, cherry pick, set 2 (AID 743343); assay type: functional;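 further: transfected cells were stimulated with diluted bursicon conditioned medium after compound addition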
[20] = cytotoxicity toward DRD oncogenic fibroblasts, dose response, cell-based, non-viral oncogenic, luminescence (AID 1934); assay type: functional; conditions: Homo sapiens
[21] = system: BJ; assay: cytotoxicity toward BJ-TERT-LT-ST fibroblasts, dose response, cell-based, RAS-independent, luminescence (AID 1935); assay type: functional; conditions: Homo sapiens;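 further: BJ fibroblasts immortalized with TERT plus LT and ST oncogenes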
[22] = HepG2 cell cytotoxicity, dose response, cytotoxicity control, plate reader, cherry-pick, antagonist series (AID 743416); assay type: functional, cell-based
[23] = system: BJ; assay: cytotoxicity toward BJ-TERT fibroblasts, dose response, cell-based, RAS-independent, luminescence (AID 1933); assay type: functional; conditions: Homo sapiens
[24] = system: H4; assay: Luminescence Cell-Based Dose Response HTS to Identify Activators of 5'UTR Stem-Loop Driven Prion Protein mRNA Translation in H4 Neuroglioblastoma Cells. [Related pubchem assays: 1829 (Project Summary), 1814 (Primary HTS)]; assay type: functional; conditions: Homo sapiens
[25] = target: T5, Protein skinhead-1 (Caenorhabditis elegans, UniProt P34707); assay type: functional
T5 sequence (P34707 whole entry): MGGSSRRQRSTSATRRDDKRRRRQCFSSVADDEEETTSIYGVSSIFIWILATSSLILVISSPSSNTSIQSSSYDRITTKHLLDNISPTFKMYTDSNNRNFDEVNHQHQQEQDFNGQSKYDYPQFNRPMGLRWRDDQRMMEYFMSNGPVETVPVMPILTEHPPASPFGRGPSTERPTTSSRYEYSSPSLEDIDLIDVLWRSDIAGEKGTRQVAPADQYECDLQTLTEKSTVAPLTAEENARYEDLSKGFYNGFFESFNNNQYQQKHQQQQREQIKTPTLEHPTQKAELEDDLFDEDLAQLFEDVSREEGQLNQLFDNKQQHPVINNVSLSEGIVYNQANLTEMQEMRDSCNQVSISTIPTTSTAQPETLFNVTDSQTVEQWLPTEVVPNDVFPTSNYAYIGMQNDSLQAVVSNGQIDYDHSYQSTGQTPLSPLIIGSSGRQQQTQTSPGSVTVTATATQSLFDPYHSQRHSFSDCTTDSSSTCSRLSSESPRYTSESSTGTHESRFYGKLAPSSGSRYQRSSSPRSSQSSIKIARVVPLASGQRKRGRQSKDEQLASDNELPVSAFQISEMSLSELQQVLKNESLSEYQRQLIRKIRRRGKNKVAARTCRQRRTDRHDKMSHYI

[26] = cells; assay type: functional, cell-based; remark: listed apart in the source
[27] = cells; assay type: functional, cell-based; remark: listed apart in the source
[28] = Luminescence Cell-Based Dose Response HTS to Identify Activators of Luciferase Translation or Activity in H4 […] Cells. [Related pubchem assays: 1829 (Project Summary), 1814 (Primary HTS)]; assay type: functional
[29] = system: Jurkat; assay: antigen receptor-induced NF-kB inhibitors, dose response, Jurkat, luciferase reporter, luminescence, B- and T-cell (AID 489004); assay type: functional, cell-based; conditions: Homo sapiens;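 further: NF-kB luciferase reporter Jurkat cells stimulated with PMA plus ionomycin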
[30] = cytotoxicity in HEK-293T NF-kB-Luc cells, dose response, cytotoxicity control for B/T-cell NF-kB inhibitor project, cell-based, uHTS hits (AID 489019); assay type: functional;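 further: IC50 reflects cytotoxicity as loss of cell viability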
[31] = reduction of Shn3 3'UTR firefly luciferase signal, dose response, Schnurri-3 inhibitor project, cell-based, Clone20 osteoblasts, cherry-pick, set 2 (AID 720490); assay type: functional;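 further: actives lower the luminescence signal as inhibitors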
[32] = Shn3 3'UTR reporter inhibitors, dose response, cell-based, Clone20 osteoblasts, firefly luciferase, cherry-picked (AID 624132); assay type: functional;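 further: firefly luciferase luminescence from reporter carrying the Shn3 3'UTR in osteoblasts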

Luciferin 4-monooxygenase, sequence (P08659 whole entry): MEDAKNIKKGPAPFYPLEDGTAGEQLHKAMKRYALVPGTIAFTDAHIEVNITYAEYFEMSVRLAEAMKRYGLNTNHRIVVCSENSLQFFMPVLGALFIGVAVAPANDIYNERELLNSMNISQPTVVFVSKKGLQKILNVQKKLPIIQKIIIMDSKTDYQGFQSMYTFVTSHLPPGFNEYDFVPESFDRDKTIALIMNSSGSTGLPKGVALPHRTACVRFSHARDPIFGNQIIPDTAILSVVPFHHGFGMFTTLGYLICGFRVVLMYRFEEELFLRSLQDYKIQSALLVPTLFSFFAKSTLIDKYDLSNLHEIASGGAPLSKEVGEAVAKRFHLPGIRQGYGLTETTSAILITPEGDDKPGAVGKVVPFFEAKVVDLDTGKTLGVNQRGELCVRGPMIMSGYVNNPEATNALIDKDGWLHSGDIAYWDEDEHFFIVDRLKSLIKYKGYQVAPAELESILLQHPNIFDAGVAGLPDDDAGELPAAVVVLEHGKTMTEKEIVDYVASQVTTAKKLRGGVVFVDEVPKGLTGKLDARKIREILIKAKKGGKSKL

Cc1ccnc(NC(=O)c2ccc(OCC3CCCO3)cc2)c1 (stereo not given)
AC50 [1]: 2.57 µM (active) | IC50 [2]: > 67.5 µM (inactive) | EC50 [3]: 7.94 µM (active) | EC50 [4]: 5.2 µM (active) | AC50 [5]: 26 µM (active) | IC50 [6]: > 67.5 µM (inactive)

COc1ccccc1C(=O)NC(=O)Nc1cccc(Cl)c1
EC50 [7]: > 67.5 µM (inactive) | EC50 [8]: > 67.5 µM (inactive)

N#C/C(=C\c1cc(O)c(O)c(O)c1)C(N)=O
EC50 [9]: 134 µM (active) | IC50 [10]: > 122 µM (inactive) | EC50 [11]: > 150 µM (inconclusive) | IC50 [12]: > 122 µM (inactive)

Cc1cc2nc(-c3cccnc3O)[nH]c2cc1C
AC50 [13]: 6.43 µM (active) | EC50 [14]: 8.47 µM (active) | AC50 [15]: 7.63 µM (active) | AC50 [16]: 8.69 µM (active) | EC50 [3]: 1.07 µM (active) | EC50 [4]: 1.73 µM (active) | AC50 [17]: 3.23 µM (active) | AC50 [18]: 2.69 µM (active) | AC50 [19]: 2.48 µM (active) | EC50 [20]: 4.3 µM (active) | EC50 [21]: 13.3 µM (active) | AC50 [22]: 7.17 µM (active) | EC50 [23]: 4.58 µM (active)

O=C(NC1CCCC1)c1cc(-c2ccccc2)on1
EC50 [24]: 3.13 µM (active) | IC50 [25]: > 100 µM (inactive) | EC50 [26]: 330 µM (active) | AC50 [5]: 26 µM (active) | EC50 [27]: > 350 µM (not active) | EC50 [28]: 0.355 µM (active)

CCn1c(C)cc(C(=O)COC(=O)c2ccccc2[N+](=O)[O-])c1C
IC50 [29]: < 0.16 µM (active) | IC50 [30]: > 80 µM (inactive) | AC50 [31]: < 0.135 µM (active) | AC50 [32]: < 0.26 µM (active)

Source: ChEMBL document CHEMBL1201862, “PubChem BioAssay data set” (2004)
